Measured values published in ChEMBL document CHEMBL4610120, “New Broad-Spectrum Antibiotics Containing a Pyrrolobenzodiazepine Ring with Activity against Multidrug-Resistant Gram-Negative Bacteria” (J Med Chem, 2020).
Converted amounts (≈) assume the structure as drawn.

How the values were obtained:
[1] = test system: Klebsiella pneumoniae; assay: Ratio of MIC for multidrug-resistant Klebsiella pneumoniae NCTC 13368 to MIC for multidrug-resistant Klebsiella pneumoniae NCTC 13368 in presence of efflux pump inhibitor PAbetaN; type: functional
[2] = test system: Acinetobacter baumannii; assay: Antimicrobial activity against Acinetobacter baumannii ATCC 17978 by microdilution broth method; type: functional
[3] = test system: Acinetobacter baumannii; assay: Antimicrobial activity against multidrug-resistant Acinetobacter baumannii AYE by microdilution broth method; type: functional
[4] = test system: Pseudomonas aeruginosa; assay: Antimicrobial activity against Pseudomonas aeruginosa PAO1 by microdilution broth method; type: functional
[5] = test system: Staphylococcus aureus; assay: Antibacterial activity against methicillin resistant Staphylococcus aureus NCTC 13616 by microdilution broth method; type: functional
[6] = test system: Klebsiella pneumoniae; assay: Antimicrobial activity against multidrug-resistant Klebsiella pneumoniae 16 by microdilution broth method; type: functional
[7] = test system: Klebsiella pneumoniae; assay: Antimicrobial activity against multidrug-resistant Klebsiella pneumoniae 46704 by microdilution broth method; type: functional
[8] = test system: Klebsiella pneumoniae; assay: Antimicrobial activity against multidrug-resistant Klebsiella pneumoniae 51851 by microdilution broth method; type: functional
[9] = test system: Escherichia coli; assay: Antimicrobial activity against multidrug-resistant Escherichia coli CFI_017_VIM4 by microdilution broth method; type: functional
[10] = test system: Escherichia coli; assay: Antimicrobial activity against multidrug-resistant Escherichia coli CFI_160_KPC2 by microdilution broth method; type: functional
[11] = test system: Escherichia coli; assay: Antimicrobial activity against multidrug-resistant Escherichia coli LEC001 by microdilution broth method; type: functional
[12] = test system: Escherichia coli; assay: Antimicrobial activity against multidrug-resistant Escherichia coli NCTC 12923 by microdilution broth method; type: functional
[13] = test system: Burkholderia multivorans; assay: Antimicrobial activity against multidrug-resistant Burkholderia multivorans C1576 by microdilution broth method; type: functional
[14] = test system: Burkholderia multivorans; assay: Antimicrobial activity against multidrug-resistant Burkholderia multivorans C1962 by microdilution broth method; type: functional
[15] = test system: Burkholderia cenocepacia; assay: Antimicrobial activity against multidrug-resistant Burkholderia cenocepacia K56-2 by microdilution broth method; type: functional
[16] = Antimicrobial activity against multidrug-resistant Burkholderia cepacia complex CEP509 by microdilution broth method; type: functional
[17] = Antimicrobial activity against multidrug-resistant Burkholderia cepacia complex NCTC 17765 by microdilution broth method; type: functional
[18] = Antimicrobial activity against multidrug-resistant Burkholderia cepacia complex LMG 17997 by microdilution broth method; type: functional
[19] = Antimicrobial activity against multidrug-resistant Burkholderia cepacia complex NCTC 10743 by microdilution broth method; type: functional
[20] = test system: Klebsiella pneumoniae; assay: Antimicrobial activity against multidrug-resistant Klebsiella pneumoniae NCTC 13368 in presence of efflux pump inhibitor CCCP by microdilution broth method; type: functional
[21] = test system: Pseudomonas aeruginosa; assay: Antimicrobial activity against Pseudomonas aeruginosa PAO1 in presence of efflux pump inhibitor CCCP by microdilution broth method; type: functional
[22] = test system: Pseudomonas aeruginosa; assay: Antimicrobial activity against multidrug-resistant Pseudomonas aeruginosa NCTC 13437 in presence of efflux pump inhibitor CCCP by microdilution broth method; type: functional
[23] = test system: Klebsiella pneumoniae; assay: Antimicrobial activity against multidrug-resistant Klebsiella pneumoniae NCTC 13438 in presence of efflux pump inhibitor PAbetaN by microdilution broth method; type: functional
[24] = test system: Acinetobacter baumannii; assay: Antimicrobial activity against multidrug-resistant Acinetobacter baumannii NCTC 13424 in presence of efflux pump inhibitor PAbetaN by microdilution broth method; type: functional
[25] = Ratio of MIC for Pseudomonas aeruginosa PAO1 to MIC for Pseudomonas aeruginosa PW1783 harboring MexAB-OprM mutant; type: functional
[26] = test system: DNA; assay: Stabilization of 5'-FAM-TAT-ATA-TAG-ATA-TTT-TTT-TAT-CTA-TAT-ATA-3'-TAMRA DNA (unknown origin) assessed as reduction in change in melting temperature at 1:1 to 5:1 ligand to DNA ratio measured after 3 hrs by FRET-based assay relative to control; type: ADME, nucleic-acid assay
[27] = Selectivity ratio of cytotoxicity against human WI38 cells to MIC for multidrug-resistant Klebsiella pneumoniae NCTC 13368; type: toxicity, cell-based
[28] = Selectivity ratio of cytotoxicity against human WI38 cells to MIC for Pseudomonas aeruginosa PAO1; type: toxicity, cell-based
[29] = Selectivity ratio of cytotoxicity against human WI38 cells to MIC for vancomycin resistant Enterococcus faecium NCTC 12204; type: toxicity, cell-based
[30] = Selectivity ratio of cytotoxicity against human WI38 cells to MIC for vancomycin resistant Enterococcus faecalis NCTC 12201; type: toxicity, cell-based
[31] = Selectivity ratio of cytotoxicity against human WI38 cells to MIC for vancomycin sensitive Enterococcus faecalis NCTC 775; type: toxicity, cell-based
[32] = Selectivity ratio of cytotoxicity against human WI38 cells to MIC for methicillin resistant Staphylococcus aureus NCTC 13277; type: toxicity, cell-based
[33] = Selectivity ratio of cytotoxicity against human WI38 cells to MIC for methicillin sensitive Staphylococcus aureus NCTC 6571; type: toxicity, cell-based
[34] = target: DNA gyrase (Staphylococcus aureus, UniProt P0A0K8+P20831); assay: Inhibition of Staphylococcus aureus DNA gyrase using relaxed pNO1 as substrate by gel based fluorescence assay; type: protein-complex assay
Sequence of DNA gyrase (Staphylococcus aureus, UniProt P0A0K8+P20831) (P0A0K8 whole entry): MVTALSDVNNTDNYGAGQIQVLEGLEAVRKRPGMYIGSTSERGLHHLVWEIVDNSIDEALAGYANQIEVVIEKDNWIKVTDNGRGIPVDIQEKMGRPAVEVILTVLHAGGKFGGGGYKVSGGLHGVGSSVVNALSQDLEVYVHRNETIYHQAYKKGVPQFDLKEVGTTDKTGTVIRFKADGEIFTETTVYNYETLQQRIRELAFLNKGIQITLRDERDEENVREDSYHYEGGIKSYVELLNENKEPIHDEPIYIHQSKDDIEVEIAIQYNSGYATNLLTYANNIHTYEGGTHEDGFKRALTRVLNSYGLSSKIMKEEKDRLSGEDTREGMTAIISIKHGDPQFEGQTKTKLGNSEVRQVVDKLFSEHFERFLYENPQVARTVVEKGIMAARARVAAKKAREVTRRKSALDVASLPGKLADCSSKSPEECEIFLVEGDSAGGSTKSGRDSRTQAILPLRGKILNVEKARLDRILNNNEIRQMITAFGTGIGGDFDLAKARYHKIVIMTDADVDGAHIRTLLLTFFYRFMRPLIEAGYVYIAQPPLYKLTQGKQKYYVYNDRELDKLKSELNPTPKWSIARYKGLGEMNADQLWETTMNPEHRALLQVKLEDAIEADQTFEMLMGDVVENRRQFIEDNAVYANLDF
Sequence of DNA gyrase (Staphylococcus aureus, UniProt P0A0K8+P20831) (P20831 whole entry): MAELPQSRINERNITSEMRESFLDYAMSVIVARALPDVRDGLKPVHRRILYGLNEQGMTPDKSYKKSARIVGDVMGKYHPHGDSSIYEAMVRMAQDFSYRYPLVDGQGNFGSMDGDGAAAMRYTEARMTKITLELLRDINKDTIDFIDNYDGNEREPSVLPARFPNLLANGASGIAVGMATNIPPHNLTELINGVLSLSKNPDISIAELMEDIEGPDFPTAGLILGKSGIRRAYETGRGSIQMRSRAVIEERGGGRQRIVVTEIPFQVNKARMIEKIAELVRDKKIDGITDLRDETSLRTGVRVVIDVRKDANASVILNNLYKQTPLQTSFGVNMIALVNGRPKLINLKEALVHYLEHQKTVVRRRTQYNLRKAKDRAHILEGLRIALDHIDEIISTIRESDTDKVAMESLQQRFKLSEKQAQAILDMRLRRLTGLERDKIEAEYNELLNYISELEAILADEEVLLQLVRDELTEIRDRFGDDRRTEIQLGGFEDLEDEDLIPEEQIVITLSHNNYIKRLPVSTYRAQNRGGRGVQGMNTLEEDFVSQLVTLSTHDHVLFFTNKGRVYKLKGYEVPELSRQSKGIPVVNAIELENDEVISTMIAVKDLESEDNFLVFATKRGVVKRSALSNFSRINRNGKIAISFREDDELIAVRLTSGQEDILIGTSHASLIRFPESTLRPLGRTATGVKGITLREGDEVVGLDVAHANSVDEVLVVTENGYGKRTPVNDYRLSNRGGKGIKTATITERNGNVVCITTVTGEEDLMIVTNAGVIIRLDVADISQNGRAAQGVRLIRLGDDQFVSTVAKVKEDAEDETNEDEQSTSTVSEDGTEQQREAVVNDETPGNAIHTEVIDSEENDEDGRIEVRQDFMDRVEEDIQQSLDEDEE

[35] = target: DNA gyrase (Escherichia coli, UniProt P0AES6+P0AES4); assay: Inhibition of Escherichia coli DNA gyrase using relaxed pNO1 as substrate by gel based fluorescence assay; type: protein-complex assay
[36] = target: T1, DNA repair protein RecN (Escherichia coli) (UniProt P05824); assay: Induction of Escherichia coli K12 MG1655 recN promotor measured at 30 mins interval for 20 hrs by fluorescence assay relative to control; settings: Escherichia coli str. K-12 substr. MG1655
T1 sequence (whole entry): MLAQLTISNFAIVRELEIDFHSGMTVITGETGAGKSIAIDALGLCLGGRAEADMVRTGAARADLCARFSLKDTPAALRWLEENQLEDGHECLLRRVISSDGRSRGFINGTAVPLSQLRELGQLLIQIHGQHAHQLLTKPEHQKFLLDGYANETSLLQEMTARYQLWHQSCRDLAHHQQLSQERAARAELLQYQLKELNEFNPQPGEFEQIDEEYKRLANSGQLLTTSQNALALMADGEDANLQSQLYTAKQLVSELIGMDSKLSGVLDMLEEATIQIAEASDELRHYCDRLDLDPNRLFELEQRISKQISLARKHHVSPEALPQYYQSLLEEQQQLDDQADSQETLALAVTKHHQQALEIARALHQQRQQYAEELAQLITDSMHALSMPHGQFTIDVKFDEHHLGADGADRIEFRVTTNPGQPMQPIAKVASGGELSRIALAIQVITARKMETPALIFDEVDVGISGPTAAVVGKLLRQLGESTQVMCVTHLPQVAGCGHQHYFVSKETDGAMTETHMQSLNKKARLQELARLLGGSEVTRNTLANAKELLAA

[37] = target: T2, Cell division inhibitor SulA (Escherichia coli K-12) (UniProt P0AFZ5); assay: Induction of Escherichia coli K12 MG1655 sulA promotor measured at 30 mins interval for 20 hrs by fluorescence assay relative to control; settings: Escherichia coli str. K-12 substr. MG1655
T2 sequence (whole entry): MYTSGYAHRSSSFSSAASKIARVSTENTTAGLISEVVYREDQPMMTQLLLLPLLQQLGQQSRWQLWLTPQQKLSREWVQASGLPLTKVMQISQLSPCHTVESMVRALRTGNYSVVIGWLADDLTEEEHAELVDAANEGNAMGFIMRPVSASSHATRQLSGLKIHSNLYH

`COc1cc2c(cc1OCCCC(=O)Nc1cc(C(=O)Nc3ccc4sc(C(=O)N(C)C)cc4c3)n(C)c1)N=C[C@@H]1CCCN1C2=O` showed a Ratio [1] of 4, an MIC [2] of 0.5 to 1 µg/mL (≈ 0.761 to 1.52 µM) and an MIC [3] of 0.5 to 1 µg/mL (≈ 0.761 to 1.52 µM). For the same molecule, the MIC [4] was greater than 32 µg/mL, the MIC [5] was 0.03 µg/mL (≈ 0.0457 µM) and the MIC [6] was 0.25 to 1 µg/mL (≈ 0.381 to 1.52 µM). For the same molecule, the MIC [7] was 1 µg/mL (≈ 1.52 µM), the MIC [8] was 2 µg/mL (≈ 3.05 µM) and the MIC [9] was 1 µg/mL (≈ 1.52 µM). It also gave an MIC [10] of 0.5 µg/mL (≈ 0.761 µM), an MIC [11] of 1 µg/mL (≈ 1.52 µM) and an MIC [12] of 0.5 µg/mL (≈ 0.761 µM). For the same molecule, the MIC [13] was 1 µg/mL (≈ 1.52 µM), the MIC [14] was 2 µg/mL (≈ 3.05 µM) and the MIC [15] was 2 µg/mL (≈ 3.05 µM). The MIC [16] was 2 µg/mL (≈ 3.05 µM), the MIC [17] was 0.125 µg/mL (≈ 0.19 µM) and the MIC [18] was 0.125 µg/mL (≈ 0.19 µM). The MIC [19] was 1 to 2 µg/mL (≈ 1.52 to 3.05 µM), the MIC [20] was 2 µg/mL and the MIC [21] was greater than 32 µg/mL. For the same molecule, the MIC [22] was greater than 32 µg/mL, the MIC [23] was 0.25 µg/mL and the MIC [24] was 0.25 µg/mL. It also gave a Ratio [25] greater than 8, a fold change (FC) [26] of 3 to 4 and a selectivity ratio [27] of 10. The selectivity ratio [28] was 10, the selectivity ratio [29] was 100 and the selectivity ratio [30] was 100. It also gave a selectivity ratio [31] of 100, a selectivity ratio [32] of 100 and a selectivity ratio [33] of 100. The IC50 ([34]; read-out: IC50 (converted)) was 4.81 µM, the IC50 [35] was “Nd(Insoluble)” and the fold change (FC) [36] was 6 to 11. For the same molecule, the fold change (FC) [37] was 6 to 7.

Work on `COc1cc2c(cc1OCCCC(=O)Nc1cc(C(=O)Nc3ccc4oc(C(=O)N5CCSCC5)cc4c3)n(C)c1)N=C[C@@H]1CCCN1C2=O` yielded a Ratio [1] of 4, an MIC [2] of 2 µg/mL (≈ 2.86 µM) and an MIC [3] of 2 to 4 µg/mL (≈ 2.86 to 5.72 µM). It also gave an MIC [4] of 32 to 128 µg/mL (≈ 45.8 to 183 µM), an MIC [5] of 2 µg/mL (≈ 2.86 µM) and an MIC [6] of 1 µg/mL (≈ 1.43 µM). It also gave an MIC [7] of 4 µg/mL (≈ 5.72 µM), an MIC [8] of 4 µg/mL (≈ 5.72 µM) and an MIC [9] of 2 µg/mL (≈ 2.86 µM). The MIC [10] was 4 µg/mL (≈ 5.72 µM), the MIC [11] was 2 µg/mL (≈ 2.86 µM) and the MIC [12] was 2 µg/mL (≈ 2.86 µM). It also gave an MIC [13] of 16 µg/mL (≈ 22.9 µM), an MIC [14] greater than 32 µg/mL and an MIC [15] of 1 µg/mL (≈ 1.43 µM). The MIC [16] was 8 µg/mL (≈ 11.4 µM), the MIC [17] was 1 µg/mL (≈ 1.43 µM) and the MIC [18] was 0.25 µg/mL (≈ 0.358 µM). For the same molecule, the MIC [19] was 16 µg/mL (≈ 22.9 µM), the MIC [20] was greater than 32 µg/mL and the MIC [21] was greater than 32 µg/mL. It also gave an MIC [22] greater than 32 µg/mL, an MIC [23] of 4 µg/mL and an MIC [24] of 2 µg/mL. The Ratio [25] was greater than 8, the fold change (FC) [26] was 3 to 4 and the selectivity ratio [27] was 10. It also gave a selectivity ratio [28] of 10, a selectivity ratio [29] of 100 and a selectivity ratio [30] of 100. For the same molecule, the selectivity ratio [31] was 100, the selectivity ratio [32] was 100 and the selectivity ratio [33] was 100. The IC50 [34] was “Nd(Insoluble)”, the IC50 [35] was “Nd(Insoluble)” and the fold change (FC) [36] was 6 to 11. It also gave a fold change (FC) [37] of 6 to 7.
